The compounds below were run on HEY ovarian cancer cells (assay: MTT cytotoxicity assay, HEY). Conditions: HEY ovarian cancer cells; read-out: 50% Cytotoxic concentration (IC50).
Type: cell-based, human
Description: The sensitivity of a panel of seven human cancer cell lines to SC144 was assessed by MTT-assay. […] The sensitivity towards SC144 was time- and dose-dependent.
Cytotoxicity was assessed by a 3-(4,5-dimethylthiazol-2-yl)-2,5-diphenyltetrazolium bromide assay as previously described (Carmichael et al. (1987) Cancer Res. 47:936-42). Briefly, cells were seeded in 96-well microtiter plates (PC3 and DU145 at 5,000 cells/well and LNCaP at 10,000 cells/well; breast and ovarian cells at 4,000 cells/well) and allowed to attach. Cells were subsequently treated with a continuous exposure to the corresponding drug for 72 hours. A 3-(4,5-dimethylthiazol-2-yl)-2,5-diphenyltetrazolium bromide solution (at a final concentration of 0.5 mg/mL) was added to each well and cells were incubated for 4 hours at 37° C. After removal of the medium, DMSO was added and the absorbance was read at 570 nm. All assays were done in triplicate. The IC50 was then determined for each drug from a plot of log(drug concentration) versus percentage of cell kill.

| SMILES | IC50 [µM] |
| --- | --- |
| CCCn1c(=O)c(C(=O)NNC(=O)CC(=O)OCC)c(O)c2ccccc21 [SC202] | 1 |
| COCc1c(C(=O)NNC(=O)c2ccccc2F)nnn1-c1nonc1N [SC204] | 1 |
| CCCn1c(=O)c(C(=O)NNC(=O)c2ccc(C)cc2)c(O)c2ccccc21 [SC206] | 1 |
| O=C(COc1ccc2ccccc2c1)NNC(=O)c1cc2ccccc2cc1O [SC210] | 1 |
| CSc1nc(NNC(=O)c2ccco2)c2c3c(sc2n1)COC(C)(C)C3 [SC212] | 1 |
| CCn1c(=O)c(C(=O)NNC(=O)c2ccccc2[N+](=O)[O-])c(O)c2ccccc21 [SC214] | 1 |
| Cc1ccc(-n2c(SCC(=O)NNC(=O)c3ccccc3O)nnc2-c2ccccc2O)cc1 [SC245] | 1 |
| O=C(CSc1nnc(-c2ccccc2O)n1Cc1ccccc1)NNC(=O)c1ccccc1O [SC246] | 1 |

Same assay, conditions: Homo sapiens, read-out: 50% Cytotoxic concentration (IC50)

| SMILES | IC50 [µM] |
| --- | --- |
| Cc1cccc(C(O)(C(=O)NNC(=O)/C(O)=C/C(=O)c2ccccc2)c2cccc(C)c2)c1 [SC230] | 3 |

Same assay, conditions: Homo sapiens; HEY ovarian cancer cells; read-out: 50% Cytotoxic concentration (IC50)

| SMILES | IC50 [µM] |
| --- | --- |
| O=C(CSc1nc2ccccc2c(=O)n1CC1CCCO1)NNC(=O)c1ccccc1O (centres unmarked) | 2 |
| CCCn1c(=O)c(C(=O)NNC(=O)c2ccccc2)c(O)c2ccccc21 [SC201] | 2 |
| CCn1c(=O)c(C(=O)NNC(=O)Cc2ccccc2)c(O)c2ccccc21 [SC203] | 6 |
| CCn1c(=O)c(C(=O)NNC(=O)c2ccc(C)cc2)c(O)c2ccccc21 [SC205] | 6 |
| CCn1c(=O)c(C(=O)NNC(=O)c2cccc(C)c2)c(O)c2ccccc21 [SC207] | 6 |
| O=C(CSc1nnc(-c2ccccc2O)o1)NNC(=O)Cc1ccccc1 [SC208] | 4 |
| CC1CCN(S(=O)(=O)c2ccc(C(=O)NNC(=O)C3CC3)cc2)CC1 [SC209] | 8 |
| CCc1cc2ccccc2nc1SCC(=O)NNC(=O)c1ccccc1 [SC211] | 10 |
| Cc1cccc(C(=O)NNC(=O)CSc2nc3ccccc3cc2C)c1 [SC213] | 12 |
| Cc1cc(C)cc(OCC(=O)NNC(=O)c2cc3ccccc3oc2=O)c1 [SC215] | 12 |
| CCn1c(=O)c(C(=O)NNC(=O)c2ccc([N+](=O)[O-])cc2)c(O)c2ccccc21 [SC216] | 5 |
| C=C(C)CNC(=S)NNC(=O)CCn1c2ccccc2c2ccccc21 [SC217] | 4 |
| CCn1c(=O)c(C(=O)NNC(=O)c2cccc([N+](=O)[O-])c2)c(O)c2ccccc21 [SC218] | 4 |
| O=C(NNC(=O)c1c(O)c2ccccc2[nH]c1=O)c1ccccc1[N+](=O)[O-] [SC219] | 2 |
| CC1=C(C)C2c3nnc(SCC(=O)NNC(=O)c4ccco4)n3C=NC2S1 (centres unmarked) [SC220] | 4 |
| O=C(NNC(=O)c1c(O)c2ccccc2[nH]c1=O)c1cccc([N+](=O)[O-])c1 [SC221] | 4 |
| O=C(CSc1nc2ccccc2cc1Cc1ccccc1)NNC(=O)c1ccco1 [SC222] | 8 |
| COc1ccc(C(=O)NNC(=O)c2cc3ccccc3oc2=O)cc1OC [SC223] | 4 |
| O=C(CSc1nc(C2CC2)nc2sc3c(c12)CCCC3)NNC(=O)c1ccco1 [SC224] | 4 |
| CCn1c(=O)c(C(=O)NNC(=O)c2ccccc2F)c(O)c2ccccc21 [SC225] | 2 |
| COc1ccc(C(=O)NNC(=O)CSc2ncnc3sc4c(c23)CCCC4)cc1 [SC226] | 5 |

| SMILES | IC50 [µM] |
| --- | --- |
| CCc1cc2ccc(C)cc2nc1SCC(=O)NNC(=O)c1ccco1 [SC227] | 6 |
| CCC(=O)NNc1nc2c(c(=O)n1Cc1ccccc1)C1(CCCC1)Cc1ccccc1-2 [SC228] | 6 |
| CC1(C)Cc2c(sc3nc(NNC(=O)c4ccccc4)[nH]c(=O)c23)CO1 [SC229] | 8 |
| CCCCCCCC(=O)NNC(=O)c1c(O)c2ccccc2n(CC)c1=O [SC231] | 3 |
| CC1=C(C)C2c3nnc(SCC(=O)NNC(=O)c4ccco4)n3C(C(C)C)=NC2S1 (centres unmarked) [SC232] | 6 |
| CCCCCCCCC(=O)NNC(=O)c1c(O)c2ccccc2n(C)c1=O [SC233] | 5 |
| Cc1cccc(C(=O)NNC(=O)CSc2nc(-c3ccccc3)nc3ccc(F)cc23)c1 [SC234] | 8 |
| CCCCCCC(=O)NNC(=O)c1c(O)c2ccccc2n(CCC)c1=O [SC235] | 7 |
| CCCCCCCCCC(=O)NNC(=O)c1c(O)c2ccccc2[nH]c1=O [SC237] | 7 |
| O=C(NNC(=O)c1cc2ccccc2oc1=O)c1ccc(S(=O)(=O)N2CCCCC2)cc1 [SC238] | 3 |
| O=C(NNC(=O)c1cc2ccccc2oc1=O)c1ccc(S(=O)(=O)N2CCOCC2)cc1 [SC239] | 3 |
| Cc1ccc(-n2c(SCC(=O)NNC(=O)c3ccccc3O)nnc2-c2ccccc2)cc1 [SC240] | 5 |
| O=C(CSc1nnc(-c2ccccc2)n1Cc1ccccc1)NNC(=O)c1ccccc1O [SC241] | 5 |
| COc1ccc2nc(C)cc(SCC(=O)NNC(=O)COc3cccc4ccccc34)c2c1 [SC242] | 5 |
| Cc1ccc(C(=O)n2nnc3c(NNC(=O)COc4ccc(F)cc4)nc(C4CC4)nc32)cc1 [SC243] | 6 |
| O=C(CSC1=NNC2C3=C(N=C(C4CC4)N12)S1=C(CCCC1)C3)NNC(=O)C1C=CC=CO1 (centres unmarked) [SC244] | 15 |
| O=C(CSc1nnc2c3c4c(sc3ncn12)CCCC4)NNC(=O)c1ccco1 [SC247] | 14 |
| O=C(CSc1nnc(Cc2ccccc2)n1-c1cccc(Cl)c1)NNC(=O)c1ccccc1O [SC248] | 2 |
| Cc1ccc(-n2c(SCC(=O)NNC(=O)Cc3ccccc3)nc3sc4c(c3c2=O)CCCC4)cc1 [SC249] | 2 |
| Cc1ccc(C(=O)NNC(=O)CSc2nnc3c4c5c(sc4nc(C4CC4)n23)CCCC5)cc1 [SC250] | 2 |
| O=C(NNC(=O)c1cccs1)c1ccco1 [SC251] | 15 |

| SMILES | IC50 [µM] |
| --- | --- |
| O=C(NNC(=O)c1cccs1)c1ccccn1 [SC252] | 16 |
| CCn1c(NNC=O)nc2c1c(=O)[nH]c(=O)n2C [SC253] | 12 |
| Cc1occc1C(=O)NNC(=O)c1ccccc1F [SC254] | 17 |
| O=C(NNC(=O)c1ccccc1O)c1cccs1 [SC255] | 14 |
| CCC(=O)NNC(=O)c1c(O)c2ccccc2[nH]c1=O [SC256] | 3 |
| O=C(NNC(=O)c1cccs1)c1ccc(O)c(O)c1 [SC257] | 2 |
| O=C(/C=C/NNC(=O)c1ccccc1O)c1ccccc1 [SC258] | 2 |
| O=C(O)CCCC(=O)NNC(=O)c1ccccc1Cl [SC259] | 18 |
| COc1ccccc1C(=O)NNC(=O)c1ccccc1O [SC260] | 10 |
| O=C(NNC(=O)c1cccc2ccccc12)c1cccs1 [SC261] | 11 |
| O=C(NNC(=O)c1cccs1)c1ccc2ccccc2c1 [SC262] | 11 |
| O=C(O)/C=C/C(=O)NNC(=O)c1cc(-c2ccccc2)[nH]n1 [SC263] | 5 |
| O=C(NNC1=CS(=O)(=O)c2ccccc21)c1ccccc1 [SC264] | 5 |
| O=C(NNC1=NS(=O)(=O)c2ccccc21)c1ccncc1 [SC265] | 5 |
| O=C(NNC(=O)c1cc2ccccc2oc1=O)c1ccncc1 [SC266] | 7 |
| O=C(NNC(=O)c1c(O)c2ccccc2[nH]c1=O)c1ccccc1 [SC268] | 10 |
| O=C(CCc1ccccc1)NNC(=O)c1ccc2ccccc2c1O [SC270] | 5 |
| O=C(COc1ccc2ccccc2c1)NNC(=O)c1ccccc1O [SC271] | 6 |
| COc1cccc(C(=O)NNC(=O)c2ccc3ccccc3c2O)c1 [SC272] | 7 |
| COc1ccccc1C(=O)NNC(=O)c1ccc2ccccc2c1O [SC273] | 11 |

Reference: patent US20110034472A1, “Novel Compounds for Treatment of Cancer and Disorders Associated With Angiogenesis Function” (UNIVERSITY OF SOUTHERN CALIFORNIA, priority 2004, published 2011)
